What all share (type): cell-based
Experiment [1] concerns MD-MB-231 cells. In words: MTT proliferation assay, MD-MB-231 breast cancer cells. Conditions: for effect on proliferation of MD-MB-231 cells: increasing concentrations, 24 and 48 hours, 10% charcoal-stripped phenol-free serum, dose dependent. As for the experimental part:
(§1) First, the role of THs on breast cancer cell proliferation was evaluated using escalating doses of tri-iodothyronine (T3) and thyroxine (T4). […] In particular, the compound of Formula (I) or compound of Formula (Ia) is dronedarone. Dronedarone was selected as it is an FDA approved anti-arrhythmic drug.
(§2) The effect of increasing concentrations of T3 and T4 on the proliferation of 3 breast cancer cell lines (MCF 7, MD-MB-231, BT-474) in 10% charcoal-stripped phenol-free serum was evaluated at 24 and 48 hours following standard MTT-assay protocols. Increasing doses of PTU and dronedarone were added to cells with 200 μM T3 or T4 to measure proliferation of MCF-7 and MD-MB-231 cells using MTT assays.
Background: Tetrazolium assays rely on reduction of a dye to a coloured formazan, in cell work by metabolically active cells.

In experiment [2] the test system is BT-474 cells. In words: MTT proliferation assay, BT-474 breast cancer cells. The note with it: increasing concentrations, 24 and 48 hours, 10% charcoal-stripped phenol-free serum, dose dependent. The procedure:
as §1, §2

The subject of experiment [3] is MCF7 cells. In words: MTT proliferation assay, MCF7 breast cancer cells. The note with it: for effect on proliferation of MCF7 cells: increasing concentrations, 24 and 48 hours, 10% charcoal-stripped phenol-free serum, dose dependent; for IC50: Homo sapiens; for IC50 / effect on proliferation: MCF7 cells. The procedure: as §1, §2

Where two headings read alike, the source gives them in different places. A value given as a limit tells only on which side of the number the result lay.

For `N[C@@H](Cc1cc(I)c(Oc2cc(I)c(O)c(I)c2)c(I)c1)C(=O)O` [T4, thyroxine], the “effect on proliferation of MD-MB-231 cells” value in experiment [1] is on record as “statistically significant increase”. In addition, the “effect on proliferation of BT-474 cells” value in experiment [2] is “statistically significant increase”. The “effect on proliferation of MCF7 cells” value in experiment [3] was “statistically significant increase”.

In the case of `CCCc1cc(=O)[nH]c(=S)[nH]1` [PTU, propylthiouracil], the IC50 in experiment [1] (Homo sapiens, PTU alone, without T3/T4 (FIG. 11: MDA-MB-231 cells, 24 hours), read-out: concentration reducing cell proliferation by 50%) is above 12 µM; in experiment [1] (MD-MB-231 cells, in the presence of T3 (FIG. 10), read-out: IC50 (proliferation)), 12 µM; in experiment [1] (MD-MB-231 cells, in the presence of T4 (FIG. 10), read-out: concentration reducing proliferation by 50%) it was around 5 µM; in experiment [3] (in the presence of T3 (FIG. 10), read-out: IC50 (proliferation)) it was 12 µM; in experiment [3] (in the presence of T4 (FIG. 10), read-out: concentration reducing proliferation by 50%), around 5 µM.

For `CCCCc1oc2ccc(NS(C)(=O)=O)cc2c1C(=O)c1ccc(OCCCN(CCCC)CCCC)cc1` [dronedarone], the effect on proliferation entry is on record as “significantly reduced proliferation” in experiment [1] (MD-MB-231 cells, 10 μM dronedarone in combination with T3); “significantly reduced proliferation” in experiment [1] (MD-MB-231 cells, 10 μM dronedarone in combination with T4); “significantly reduced proliferation” in experiment [3] (10 μM dronedarone in combination with T3); “significantly reduced proliferation” in experiment [3] (10 μM dronedarone in combination with T4). Further, the “effect on cell proliferation” value in experiment [1] (dronedarone alone, without T3/T4 (FIG. 13: MDA-MB-231 cells, 24 hours)) is given as “not affected”.

Take `N[C@@H](Cc1cc(I)c(Oc2ccc(O)c(I)c2)c(I)c1)C(=O)O` [T3, tri-iodothyronine]: the “effect on proliferation of MD-MB-231 cells” value in experiment [1] is on record as “statistically significant increase”. The “effect on proliferation of BT-474 cells” value in experiment [2] is listed as “statistically significant increase”. In addition, the “effect on proliferation of MCF7 cells” value in experiment [3] is “statistically significant increase”.

Source of the values: patent publication US10576056B2, “Compounds for treating cancer and methods of use thereof” (MCMASTER UNIVERSITY, priority 2015, dated 2020).
